Patent US20250257111A1, “Supramolecular Complex of a Biomolecule” (Cambridge Enterprise Limited, priority 2022, published 2025)
Square brackets hold non-standard residues; d marks the D form. Peptide text beside a SMILES is read from it. 2Nal = N[C@@H](Cc1ccc2ccccc2c1)C(=O)O

Legend:
[1] = tested on: 1:1 complex of F′GG-CB[8]; assay: ITC: secondary association of tripeptides with the 1:1 complex of F′GG-CB[8]; assay type: binding; conditions: for secondary association / binding to F′GG-CB[8]: in words; for Ka: 10 mM phosphate buffer pH 7.0, 298 K, averaged with three replicates
Procedure: (§1) Isothermal titration calorimetry (ITC) was employed to study binding thermodynamics of heteropeptide dimerization (FIG. 2c and additional data not shown). Titration of F′GG (3.0 mM) into CB[8](0.1 mM) led to a stepwise binding curve with two transitions at molar ratios of 1.0 and 2.0 (FIG. 2c). The first-step binding constant (K1) is 6.6×10^5 M^−1, while the second-step (K2) is 9.4×10^3 M^−1. This indicates negative cooperativity where K1>K2^18,19,23 Such favourable 1:1 complexation enables secondary access of electron-rich aromatic peptides.
(§2) ITC experiments were operated on a Malvern MicroCal Auto-ITC200 apparatus at 298 K in 10 mM phosphate buffer with pH 7.0. In a of 1 injection of 0.6 μL and 32 consecutive injections of 1.2 μL with 90 s intervals between injections. The first data point was removed before analysis. The ITC data were fitted by MicroCal Analysis Centre software using one set of sites model. In a typical experiment for homoternary complexation, the host molecule (CB[8]) was loaded in the sample cell with a concentration of 0.1 mM, and the guest peptide was loaded in the syringe with a concentration of 2.0 mM. The injection and interval settings were the same as above. The first data point was removed from the data set before analysis. The obtained ITC curves were fitted by MicroCal Analysis Centre software using sequential binding model. All parameters were averaged with three replicates, s.d. n=3.

[2] = cited from earlier work
[3] = ITC: titration of F′GG into CB[8] (stepwise binding); conditions: F′GG (3.0 mM) into CB[8] (0.1 mM)
Procedure: as §1
as §2, with “All parameters were averaged with three replicates, s.d. n=3.” left out

[4] = UV quantification of insulin on-resin recognition, 8-day storage and on-demand release; assay type: physicochemical
Procedure: UV spectra were obtained on a Cary 4000 Ultravioletvisible Spectrometer. A pair of quartz cuvettes with 2 mm gap was used. Double beam mode with a fixed 2 nm spectral bandwidth and baseline correction were selected. In a typical run, 300 μl of 1 mM solution was transferred to the quartz cuvette and was scanned compared to phosphate buffer in D2O. UV spectra were obtained in the linear absorption range (0.2-0.8) for better quantification.
1 N HCl was immediately added to reach acid concentration of 5 mM. […] In a typical experiment, 8 μmol F′GGGGG equivalent of resin H2O suspension was added to a 12 ml syringe with a polyester frit (r=8.0 mm, h=2.0 mm). After H2Owas drained, 8 ml of 0.1 mM CB[8] solution was added to the resin and the plunge and a stopper were assembled to the syringe to form a sealed chamber. The syringe was transferred onto a wrist-action shaker and shaken for 12 hours. […] Then, the liquid (resin-treated solution) in syringe was drained thoroughly and the resin was washed with H2Oonce. After that, 0.8 ml of 2 mM DMADA solution (in 5 mM of HCl) was added to the resin and shaken gently for an additional 3 hours. The solution (released solution) was drained.
The 8-day storage and release experiment was conducted as follows. 9 syringes were prepared each with 8 μmol F′GGGGG equivalent of resin H2Osuspension. […] All syringes with the resin were kept at room temperature. Starting from day 0 to day 8, on each day, a syringe with resin was added with 0.8 ml of 2 mM DMADA solution (to get released solution, one per day). All yielded solutions were analyzed on UV spectroscopy immediately. Numbers to calculate released percentage in FIG. 4g were absorbance at 276 nm.

[5] = CD secondary structure verification of released insulin; assay type: physicochemical
Procedure: CD measurements were performed on a Chirascan spectrometer (Applied Photophysics). Scans were carried out at 298 K from 200-500 nm at 1.0 nm intervals. The acquisition time was 0.5 second in a 0.1 cm path length quartz cuvette. CD spectra were collected using solutions from the above UV experiments of the 8-day storage and release experiments. […] All solutions were diluted 2× before the measurements. All scans were collected and averaged out over three scans with background noise correction.

## NC(=O)CNC(=O)CNC(=O)[C@@H](N)CCC(=O)O [EGG, reference compound] (H-Glu-Gly-Gly-NH2)
[1]
  secondary association / binding to F′GG-CB[8]: no secondary association

## NC(=O)CNC(=O)CNC(=O)[C@@H](N)Cc1ccccc1 [FGG, (S)-2-amino-N-(2-((2-amino-2-oxoethyl)amino)-2-oxoethyl)-3-phenylpropanamide] (H-Phe-Gly-Gly-NH2)
[2]
  binding strength K of homodimer 2FGG-CB[8]: ca. 10^11 M^−2
[1]
  Ka: 356 ± 26 10^3M^−1

## NCC(=O)N[C@@H](Cc1ccccc1)C(=O)NCC(N)=O [GFG, (S)—N-(2-amino-2-oxoethyl)-2-(2-aminoacetamido)-3-phenylpropanamide] (H-Gly-Phe-Gly-NH2)
[1]
  Ka: 58 ± 3 10^3M^−1

## NCC(=O)NCC(=O)N[C@@H](Cc1ccccc1)C(N)=O [GGF, (S)-2-(2-(2-aminoacetamido)acetamido)-3-phenylpropanamide] (H-Gly-Gly-Phe-NH2)
[1]
  Ka: 22 ± 1 10^3M^−1

## NCC(=O)NCC(=O)N[C@@H](Cc1ccc2ccccc2c1)C(N)=O [GGNp, (S)-2-(2-(2-aminoacetamido)acetamido)-3-(naphthalen-2-yl)propanamide] (H-Gly-Gly-[2Nal]-NH2)
[1]
  Ka: 90 ± 2 10^3M^−1

## NCC(=O)NCC(=O)N[C@@H](Cc1ccc(O)cc1)C(N)=O [GGY, (S)-2-(2-(2-aminoacetamido)acetamido)-3-(4-hydroxyphenyl)propanamide] (H-Gly-Gly-Tyr-NH2)
[1]
  secondary association / binding to F′GG-CB[8]: no secondary binding

## NCC(=O)N[C@@H](Cc1ccc2ccccc2c1)C(=O)NCC(N)=O [GNpG, (S)—N-(2-amino-2-oxoethyl)-2-(2-aminoacetamido)-3-(naphthalen-2-yl)propanamide] (H-Gly-[2Nal]-Gly-NH2)
[1]
  Ka: 165 ± 10 10^3M^−1

## NCC(=O)N[C@@H](Cc1c[nH]c2ccccc12)C(=O)NCC(N)=O [GWG, (S)—N-(2-amino-2-oxoethyl)-2-(2-aminoacetamido)-3-(1H-indol-3-yl)propanamide] (H-Gly-Trp-Gly-NH2)
[1]
  Ka: 103 ± 6 10^3M^−1

## NCC(=O)N[C@@H](Cc1ccc(O)cc1)C(=O)NCC(N)=O [GYG] (H-Gly-Tyr-Gly-NH2)
[1]
  Ka: 4 ± 0.3 10^3M^−1

## NCCCC[C@H](N)C(=O)NCC(=O)NCC(N)=O [KGG, (S)-2,6-diamino-N-(2-((2-amino-2-oxoethyl)amino)-2-oxoethyl)hexanamide, reference compound] (H-Lys-Gly-Gly-NH2)
[1]
  secondary association / binding to F′GG-CB[8]: no secondary association

## CC(C)C[C@H](N)C(=O)NCC(=O)NCC(N)=O [LGG, reference compound] (H-Leu-Gly-Gly-NH2)
[1]
  secondary association / binding to F′GG-CB[8]: no secondary association

## NC(=O)CNC(=O)CNC(=O)[C@@H](N)Cc1ccc2ccccc2c1 [NpGG, (S)-2-amino-N-(2-((2-amino-2-oxoethyl)amino)-2-oxoethyl)-3-(naphthalen-2-yl) propanamide] (H-[2Nal]-Gly-Gly-NH2)
[1]
  Ka: 382 ± 22 10^3M^−1

## NC(=O)CNC(=O)CNC(=O)[C@@H](N)Cc1c[nH]c2ccccc12 [WGG, (S)-2-amino-N-(2-((2-amino-2-oxoethyl)amino)-2-oxoethyl)-3-(1H-indol-3-yl) propanamide] (H-Trp-Gly-Gly-NH2)
[1]
  Ka: 460 ± 53 10^3M^−1

## NC(=O)CNC(=O)CNC(=O)[C@@H](N)Cc1ccc(O)cc1 [YGG] (H-Tyr-Gly-Gly-NH2)
[1]
  Ka: 3 ± 5 10^3M^−1

## (S)-2-amino-N-(2-((2-amino-2-oxoethyl)amino)-2-oxoethyl)-3-(perfluorophenyl) propenamide [F′GG]
[3]
  first-step binding constant (K1): 660000 M⁻¹
  second-step binding constant (K2): 9400 M⁻¹

## insulin: Insulin (Human Recombinant), purchased; widely-used biopharmaceutical for diabetes treatment
[4]; release on day 0
  UV absorbance at 276 nm, released: 0.176 abs
[4]; release on day 2, storage at room temperature
  UV absorbance at 276 nm, released: 0.1768 abs
[4]; release on day 5, storage at room temperature
  UV absorbance at 276 nm, released: 0.1683 abs
[4]; release on day 8, storage at room temperature
  UV absorbance at 276 nm, released: 0.1739 abs
[5]; after 2, 5, 8 days of storage under room temperature on functionalized resin
  secondary structures of insulin after storage: intact
[5]; insulin, original
  CD absorbance at 208 nm, signal (mean of repeats): −56.4 θm · deg
[5]; released on day 2
  CD absorbance at 208 nm, signal (mean of repeats): −56.4 θm · deg
[5]; released on day 5
  CD absorbance at 208 nm, signal (mean of repeats): −50.3 θm · deg
[5]; released on day 8
  CD absorbance at 208 nm, signal (mean of repeats): −52.3 θm · deg
